Reference: ChEMBL document CHEMBL3886469, “Pyrrolo pyrimidine derivatives” (2016)

Assays:
[1] = molecular target: T1, Tyrosine-protein kinase BTK (Homo sapiens, UniProt Q06187); experiment: Biochemical Enzyme Assay: The inhibitory activity of the present compounds against Btk was assessed in a biochemical enzyme assay. Assay plates in 384 well format were prepared with 8-point serial dilutions for the test compounds on a Thermo CatX workstation equipped with a Innovadyne Nanodrop Express. The assay plates were prepared by addition of 50 nl per well of compound solution in 90% DMSO. The kinase reactions were started by stepwise addition of 4.5 ul per well of peptide/ATP-solution (4 uM FITC-Ahx-[…]-NH2, 164 uM ATP) in kinase buffer (50 mM HEPES, pH 7.5, 1 mM DTT, 0.02% Tween20, 0.02% BSA, 0.6% DMSO, 10 mM beta-glycerophosphate, and 10 uM sodium orthovanadate, 18 mM MgCl2, 1 mM MnCl2) and 4.5 ul per well of enzyme solution (6.4 nM full-length human recombinant BTK) in kinase buffer. Kinase reactions were incubated at 30° C. for 60 minutes and subsequently terminated by addition of 16 ul per well of stop solution (100 mM HEPES pH 7.5, 5% DMSO, 0.1% Caliper coating reagent, 10 mM EDTA, and 0.015% Brij35). Kinase reactions were analyzed on a Caliper LC3000 workstation by separating phosphorylated and unphosphorylated peptides and kinase activities were calculated from the amounts of newly formed phospho-peptide. Inhibition data were calculated by comparison to control reactions without enzyme (100% inhibition) and without inhibitors (0% inhibition).
T1 sequence (Q06187 whole entry): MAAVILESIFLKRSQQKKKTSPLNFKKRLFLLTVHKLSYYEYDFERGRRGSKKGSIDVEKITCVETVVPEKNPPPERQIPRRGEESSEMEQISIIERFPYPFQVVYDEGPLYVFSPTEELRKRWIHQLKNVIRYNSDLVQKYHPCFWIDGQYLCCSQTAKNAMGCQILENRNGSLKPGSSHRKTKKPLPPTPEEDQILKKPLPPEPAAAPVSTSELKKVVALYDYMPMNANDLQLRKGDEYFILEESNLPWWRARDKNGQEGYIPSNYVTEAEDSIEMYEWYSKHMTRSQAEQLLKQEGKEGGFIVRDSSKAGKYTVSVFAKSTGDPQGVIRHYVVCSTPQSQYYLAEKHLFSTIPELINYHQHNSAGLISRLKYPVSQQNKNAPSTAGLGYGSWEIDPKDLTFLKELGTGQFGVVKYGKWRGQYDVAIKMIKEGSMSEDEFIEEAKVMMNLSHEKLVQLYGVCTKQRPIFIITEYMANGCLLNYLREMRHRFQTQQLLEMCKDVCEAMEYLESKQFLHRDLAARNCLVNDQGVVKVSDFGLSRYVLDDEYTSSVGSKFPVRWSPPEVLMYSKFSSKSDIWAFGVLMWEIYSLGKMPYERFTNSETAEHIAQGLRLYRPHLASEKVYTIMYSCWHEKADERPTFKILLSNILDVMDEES

[2] = molecular target: T1, Tyrosine-protein kinase BTK; experiment: Cellular Assay: Alternatively, the present compounds might also be assessed for their capacity to inhibit Btk-dependent FcG receptor-induced IL-8 secretion in human cells. The human myeloid leukemia THP1 cell line (ATCC TIB202) was grown in RPMI 1640 medium supplemented with 10% FCS and 15 nM 1, 25-dihydroxy Vitamin D3 during 4 days before use to induced myeloid differentiation. A sufficient number of tissue-culture grade 384-well plates was coated with human IgG of unknown specificity by incubating overnight at 4° C. with 40 ul/well of a 50 ug/ml IgG solution in PBS. On the day of the experiment, plates were washed 5 times with 80 ul water on a Molecular Devices Aquamax DW4 plate washer. Solutions of the test compounds in 90% DMSO were added to each well on a Hamilton Microlab Star liquid handling station to 40 ul/well tissue culture medium and the total DMSO concentration was adjusted to 0.1%. Differentiated THP1 cells were then added in 40 ul/well to reach a final density of 5'000 cells/well in 80 ul culture medium. After 24 hours, IL-8 secretion was measured in the supernatant by the IL-8 HTRF assay following the protocol of the vendor (CisBio international).; type: cell-based, THP-1

IC50 [1]	IC50 [2]	SMILES
3 nM		C=C(C)c1ccc(C(=O)Nc2cc(F)cc(-c3ncnc4[nH]c(C5=CCN(C(=O)N(C)C)CC5)cc34)c2C)cc1
13 nM		Cc1c(NC(=O)c2ccc(C(C)(C)O)cc2F)cc(F)cc1-c1ncnc2[nH]c(C3=CCN(C(=O)N(C)C)CC3)cc12
4 nM		Cc1c(NC(=O)c2ccc(C3CC3)cc2)cc(F)cc1-c1ncnc2[nH]c(C3=CCN(C(=O)CC#N)CC3)cc12
110 nM		Cc1c(NC(=O)c2ccc(C(C)(C)C)cc2)cc(F)cc1-c1ncnc2[nH]c(C3=CCC4(CC3)OCCO4)cc12
23 nM	94 nM	Cc1c(NC(=O)c2ccc(C(C)(C)C)cc2)cc(F)cc1-c1ncnc2[nH]c(C3=CCSCC3)cc12
